The values below come from the NIST ThermoML archive (doi:10.1016/j.jct.2018.03.009).

The conditions of the data set: 101.33 kPa, Liquid, Pycnometric method.

Numbers after ± are expanded uncertainties.

Usually mass density stands for the mass of a sample divided by its volume. As to `COCC(C)OC(C)=O` (configuration not stated) [1-methoxy-2-propyl acetate], the mass density (273.15 K) worked out at 989.2 ± 4.4 kg/m3 and the mass density (283.15 K) was 978.2 ± 4.3 kg/m3.

On to `CCOCCOCCOC(C)=O` [2-(2-ethoxyethoxy)ethyl acetate], for which the mass density by setting is: (273.15 K) 1030 ± 5.9 kg/m3; (283.15 K) 1020 ± 5.8 kg/m3.

Regarding `CCCCOCCOC(C)=O` [2-butoxyethyl acetate], the mass density reads like this: (273.15 K) 960.4 ± 5.5 kg/m3; (283.15 K) 950.4 ± 5.4 kg/m3.

Consider `COCCOC(C)=O` [2-methoxyethyl ethanoate], for which the mass density was 1027.8 ± 5.8 kg/m3 (273.15 K) and 1016.8 ± 5.8 kg/m3 (283.15 K).

For `COC(C)CCOC(C)=O` (configuration not stated) [3-methoxybutyl acetate], the mass density reads like this: (273.15 K) 975.3 ± 4.3 kg/m3; (283.15 K) 965.3 ± 4.3 kg/m3.

For the compound `CCOCCOCCOCC` [diethylene glycol diethyl ether], the mass density reads like this: (273.15 K) 926.4 ± 4.1 kg/m3; (283.15 K) 916.3 ± 4 kg/m3.
